From PubChem BioAssay AID720632 (Broad Institute, 2013)
Activity calls are given as the source filed them. How the calls were made is not given here.

These compounds were tested against Caspase-6 (Homo sapiens) (UniProt P55212) (assay: human caspase-6 inhibitors, dose response, biochemical, VEID-R110 fluorescence, cherry-pick (AID 720632)). Settings: caspase-6, VEID-R110 fluorogenic substrate; at 8 µM (top of the series).
Sequence of Caspase-6 (Homo sapiens) (P55212 24-179 limits assumed): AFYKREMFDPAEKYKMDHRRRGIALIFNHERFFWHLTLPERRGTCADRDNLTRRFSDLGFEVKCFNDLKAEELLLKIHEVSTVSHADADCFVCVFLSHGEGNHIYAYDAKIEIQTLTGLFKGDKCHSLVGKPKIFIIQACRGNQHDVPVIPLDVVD
Sequence of Caspase-6 (Homo sapiens) (P55212 194-293 limits assumed): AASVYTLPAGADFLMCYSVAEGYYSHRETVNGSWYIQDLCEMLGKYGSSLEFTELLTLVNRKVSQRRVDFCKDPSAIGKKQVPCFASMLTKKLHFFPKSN

SMILES | activity change, negative = inhibition
O=C(NC[C@@H]1CC[C@@H]2[C@@H](CN2S(=O)(=O)c2ccccc2[N+](=O)[O-])O1)C1CCOCC1 | inactive

Same assay, conditions: caspase-6, VEID-R110 fluorogenic substrate; at 23.5 µM (top of the series)

SMILES | activity change, negative = inhibition
N#C[C@@H]1[C@H](c2ccc(C3=CCCCC3)cc2)[C@@H](CO)N1S(=O)(=O)c1ccccc1 | inactive
CCC(=O)Nc1ccc2c(c1)OC[C@@H](C)N(C(=O)CC)C[C@@H](C)[C@H](OC)CN(C)C2=O | inactive

Same assay, conditions: caspase-6, VEID-R110 fluorogenic substrate; at 26 µM (top of the series)

SMILES | activity change, negative = inhibition
O=[N+]([O-])c1ccccc1S(=O)(=O)Nc1nc2ccccc2s1 | inactive
O=C(CCN1C(=O)NC2(CCCC2)C1=O)Nc1cccc(S(=O)(=O)N2CCOCC2)c1 | inactive
Oc1c(CN2CCCCC2)ccc2cccnc12 | inactive
COc1cccc(C(=O)OC(C)C(=O)NCC2CCCCC2)c1 (configuration not stated) | inactive
COc1ccccc1C(=O)Nc1ccc2c(c1)OC[C@H](C)N(CC1CC1)C[C@@H](C)[C@H](OC)CN(C)C2=O | inactive
O=C(c1nc2ccccn2c1CN1CCCC(c2nc3ccccc3o2)C1)N1CCCC1 (configuration not stated) | inactive
CCN(Cc1ccccc1OC)CC1CCCN(CCc2cccc(OC)c2)C1 (configuration not stated) | inactive
COc1ccc(S(=O)(=O)Nc2ccc(O)c(Sc3ncn[nH]3)c2)cc1 | inactive
CCCC(=O)Nc1ccc2c(c1)OC[C@@H](C)N(Cc1ccc(F)cc1)C[C@H](C)[C@@H](OC)CN(C)C2=O | inactive
COc1ccc(CCNC(=O)c2cc3cccc(OC)c3oc2=O)cc1OC | inactive
CCCC(=O)Nc1ccc2c(c1)OC[C@@H](C)N(Cc1ccc(F)cc1)C[C@@H](C)[C@@H](OC)CN(C)C2=O | inactive
COc1cc(OC)c(OC)cc1CN1CCSCC1 | inactive
COc1ccc(N2CCN(C(=O)CCCn3c(=S)[nH]c4cc5c(cc4c3=O)OCO5)CC2)cc1 | inactive
COC(=O)c1ccc(CNC(=O)COC(=O)c2ccccc2-c2ccccc2)cc1 | inactive
COc1ccc(O)c(C(c2c(C)[nH][nH]c2=O)c2c(C)[nH][nH]c2=O)c1 | inactive
COc1cccc(C(=O)N2CCN(Cc3ccc(OC)cc3OC)CC2)c1 | inactive
O=C(N/N=C/c1cccnc1)c1cc(O)c(O)c(O)c1 | inactive
CC(C)(C)N(Cc1ccccc1)C(=O)COC(=O)c1ccc([N+](=O)[O-])o1 | inactive
O=C(Nc1ccccc1)c1nc[nH]c1C(=O)Nc1ccccc1F | inactive
O=C(NNC(=O)c1ccccc1O)c1ccccc1O | inactive
CCNC(=S)N1CCCCC1CO (configuration not stated) | inactive

SMILES | activity change, negative = inhibition
Cc1cccc(C)c1OCC(=O)NCc1ccccc1 | inactive
CO[C@H]1CN(C)C(=O)c2ccc(NC(=O)c3ccccc3)cc2OC[C@@H](C)N(C(=O)C2CC2)C[C@@H]1C | inactive
O=C(O)C[C@H]1CC[C@H]2[C@@H](COC[C@H](O)CN2S(=O)(=O)c2ccc(Oc3ccccc3)cc2)O1 | inactive
O=C(N/N=C/c1coc2ccccc2c1=O)c1cc(Br)ccc1O | inactive
CC(C)=NNc1cc([N+](=O)[O-])cc2c1C(=O)N(C)S2=O (configuration not stated) | inactive
Cc1cccc(-n2c(C)nc3cc(C(=O)NCCN4CCOCC4)ccc32)c1 | inactive
C#CCNC(=O)C[C@@H]1C[C@@]2(C(=O)OCC)CCC=C2N(Cc2ccc(Cl)cc2Cl)C1=O | inactive
Cc1ccc2c(c1)c1c(n2CC(O)CN2CCC(C)CC2)CCCC1 (configuration not stated) | inactive
O=C(CCCn1c(=S)[nH]c2cc3c(cc2c1=O)OCO3)N1CCN(C2CCCCC2)CC1 | inactive
N#CC1C(=O)Nc2cccnc21 (configuration not stated) | inactive
COc1ccc(OC)c(N/C(=N/c2nc(C)cc(C)n2)NC(C)=O)c1 | inactive
O=C(Nc1ccc(F)cc1)c1ccccc1NC(=O)C1CC=CCC1C(=O)O (configuration not stated) | inactive
Cc1noc(C)c1COc1ccccc1C(=O)N(C)CC(=O)Nc1ccc(F)c(F)c1F | inactive
O=C1NC2=C(C(=O)CCC2)C(c2cccc([N+](=O)[O-])c2)N1 (configuration not stated) | inactive
Cc1csc(=O)n1CCC(=O)OCc1nnc(-c2ccc([N+](=O)[O-])cc2)o1 | inactive
CCc1nc2c(OCc3ccc(C(=O)OC)cc3)cccn2c1N(C)C(=O)c1ccc(C)cc1 | inactive
O=C(Nc1cccc(F)c1)c1coc(=O)c(Br)c1 | inactive
O=C(COC(=O)c1ccc([N+](=O)[O-])o1)Nc1ccc(F)cc1 | inactive
CCC(NS(=O)(=O)c1ccc(C)cc1)C(=O)N1CCOCCOCCOCC1 (configuration not stated) | inactive
CCOC(=O)CC1C(=O)NCCN1S(=O)(=O)c1cccc(C(F)(F)F)c1 (configuration not stated) | inactive
Cc1ccccc1C(=O)O/N=C(\N)c1ccccc1 | inactive

SMILES | activity change, negative = inhibition
O=Cc1cscc1[B-](F)(F)F | inactive
COP(=O)(OC)c1ccc(NCc2cc(O)ccc2O)cc1 | inactive
CCCC(=O)Nc1ccc2c(c1)OC[C@H](C)N(Cc1ccc(F)cc1)C[C@H](C)[C@@H](OC)CN(C)C2=O | inactive
CN1c2ccccc2Sc2cc(N)ccc21 | inactive
COc1cccc(S(=O)(=O)N2C[C@@H]3N[C@H](C2)C3c2ccc(-c3ccccc3C)cc2)c1 (some centres not stated) | inactive
Oc1ccc(Br)cc1CNc1cccc2cccnc12 | inactive
COc1cc(NC(=O)c2cccnc2)c(Cl)cc1NC(=O)c1ccccc1 | inactive
COc1ccc2c(C#N)c3ccccn3c2c1 | inactive
CC(C)CNC(=O)C1(C)CCCCCN1C(=O)c1cccnc1 (configuration not stated) | inactive
CO[C@@H]1CN(C)C(=O)c2ccc(NC(=O)C3CC3)cc2OC[C@@H](C)N(Cc2ccccc2)C[C@H]1C | inactive
CC(C)CCn1c(=O)c2ccccc2n2c(CCC(=O)NCC3CCCO3)nnc12 (configuration not stated) | inactive
CCC(=O)Nc1ccc2c(c1)OC[C@H](C)N(C(=O)C1CC1)C[C@@H](C)[C@@H](OC)CN(C)C2=O | inactive
O=C(Cn1cncn1)NCCCc1ccccc1 | inactive
CN1CCN(C(=O)c2cc(Cl)cc(Cl)c2)CC1 | inactive
Cc1ccc(S(=O)(=O)N2CCC(C(=O)NCCCN3CCOCC3)CC2)cc1C | inactive
Oc1ccc(/C=N/N=C/c2ccc(O)c(O)c2)cc1O | inactive
CCOc1ccc(-c2n[nH]c(=S)n2Cc2ccccc2)cc1 | inactive
CCOC(=O)c1c(C)c(C(=O)NCc2ccc(OC)cc2)c(C)n1C | inactive
COc1ccccc1C(=O)Nc1ccc2c(c1)OC[C@@H](C)N(CC1CC1)C[C@@H](C)[C@@H](OC)CN(C)C2=O | inactive
CO[C@@H]1CN(C)C(=O)c2ccc(NC(=O)C3CC3)cc2OC[C@H](C)N(Cc2ccccc2)C[C@H]1C | inactive
O=C1CC(N2CCSCC2)C(=O)N1c1cccc(Cl)c1 (configuration not stated) | inactive

SMILES | activity change, negative = inhibition
CN(C)c1ccc2c(c1)[C@@H]1C[C@@H](CC(=O)NCc3ccccn3)O[C@@H](CO)[C@@H]1O2 | inactive
O=c1[nH]c2ccc(F)cc2[nH]c1=O | inactive
CCCN1C[C@@H](C)[C@@H](OC)CN(C)C(=O)c2ccc(NC(=O)c3ccccc3)cc2OC[C@H]1C | inactive
CC(C)(C)c1ccc(C(=O)Nc2ccc(S(=O)(=O)Nc3cnc4ccccc4n3)cc2)cc1 | inactive
CCO[C@H]1OC(C(=O)N2CCOCC2)=C[C@@H](c2ccc3c(c2)OCO3)[C@@H]1CCCO | inactive
COc1ccc(N(C)S(=O)(=O)c2cccc(C(=O)NCC(c3cccs3)N(C)C)c2)cc1 (configuration not stated) | inactive
Cc1ccc(-c2nc3ccc(Cl)cn3c2Cc2ccsc2)cc1 | inactive
COc1cc(N)c(Cl)cc1C(=O)NC1CCN(Cc2ccccc2)CC1 | inactive
CCOC(=O)c1c(NC(=O)C2CC(Cl)=CCC2C(=O)O)sc2c1CC(C)(C)OC2 (configuration not stated) | inactive
Nc1cccnc1Oc1ccc(F)cc1 | inactive
COc1cc(OC)c(-c2nn3c(C4CCCCC4)nnc3s2)cc1OC | inactive
CCC(=O)Nc1c(C#N)c2nc3ccccc3nc2n1-c1ccc(C)cc1 | inactive
CC1CCCCC1NS(=O)(=O)c1ccc(S(=O)(=O)N2CCN(CCC#N)CC2)cc1 (configuration not stated) | inactive
CSCCC(NC(=O)COc1ccccc1)C(=O)N(C)CC(=O)Nc1c(C)cccc1C (configuration not stated) | inactive
O=C(CCCCCn1c(=S)[nH]c2cc3c(cc2c1=O)OCO3)N1CCN(C2CCCCC2)CC1 | inactive
O=C(NCC1COc2ccccc2O1)c1ccc(F)c(S(=O)(=O)N2CCOCC2)c1 (configuration not stated) | inactive
CC(CN1CCCCC1)C(=O)NNC(=O)C12CC3CC(CC(C3)C1)C2 (configuration not stated) | inactive
CCN(C(=O)COC(=O)CNC(=O)c1ccc2ccccc2c1)C1CCS(=O)(=O)C1 (configuration not stated) | inactive
CN1C(=O)NC(=O)C(N=Nc2ccc(Cl)cc2)C1=O (configuration not stated) | inactive
COC(=O)[C@@H]1[C@@H](CO)[C@@H]2Cn3c(cccc3=O)[C@@H]2N1CC1CCOCC1 | inactive
CC(Nc1ccc2ccccc2c1)C(=O)N/N=C/c1ccncc1 (configuration not stated) | inactive
